Experimental data as given in patent US12653190B2, “Heteroaryl-triazole compounds as pesticides” (Bayer Aktiengesellschaft, priority 2020, dated 2026).

Columns and labels:
Type in all cases: in vivo
[1] = test system: adult flies Musca domestica strain WHO-N; assay: Musca domestica test (MUSCDO surface treatment & contact assay); conditions: surface concentration 20 mg/m^2, 30 minutes exposure, 24 hours after contact, read-out: efficacy (mortality)
Experimental: Musca domestica Test (MUSCDO Surface Treatment & Contact Assay)
• Solvent: Aceton+2000 ppm rapeseed oil methyl ester (RME)
In order to produce a sufficient, active ingredient containing solution it is necessary to solve the test compound in the solvent-mix (acetone at 2 mg/ml/RME 2000 ppm). This solution is pipetted onto a glazed tile and after evaporation of the acetone, adult flies of the species Musca domestica strain WHO-N are placed onto the dried surface. The exposure time is 30 minutes.
Mortality in percent (%) is determined 24 hours after contact of the insects to the treated surface. 100% mortality means that all tested insects are dead, whereas 0% means that no insect died.

[2] = test system: fall armyworm larvae (Spodoptera frugiperda); assay: Spodoptera frugiperda spray test; conditions: in Zea mays, 168 h
In short: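 Maize leaf sections were sprayed with compound in acetone/dimethylformamide diluted in water with 1000 ppm emulsifier, dried, then infested with larvae. Mortality in % was scored after 7 days, 100% meaning all caterpillars killed.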

[3] = test system: larvae of the southern green stink bug (Nezara viridula); assay: Nezara viridula spray test; conditions: 96 h, after 4 days, barley plants
In short: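 Percent mortality of southern green stink bug larvae was recorded at day 4, with 100% meaning all dead. The larvae were placed on barley sprayed with the test solution. That solution was prepared from acetone/dimethylformamide concentrate diluted in emulsifier-containing water (1000 ppm).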

[4] = test system: brown planthopper (Nilaparvata lugens); assay: Nilaparvata lugens spray test; conditions: 96 h, after 4 days, rice plants
Experimental: Nilaparvata lugens—Spray Test • Solvent: 78.0 parts by weight of acetone • 1.5 parts by weight of dimethylformamide • Emulsifier: alkylarylpolyglycol ether
To produce a suitable preparation of active compound, 1 part by weight of active compound is mixed with the stated amount of solvents and is diluted with water, containing an emulsifier concentration of 1000 ppm, to the desired concentration. Further test concentrations are prepared by dilution with emulsifier containing water.
Rice plants (Oryza sativa) are sprayed with a preparation of the active ingredient of the desired concentration and the plants are infested with the brown planthopper (Nilaparvata lugens).
After 4 days mortality in % is determined. 100% means all planthoppers have been killed and 0% means none of the planthoppers have been killed.

[5] = test system: larvae of the banded cucumber beetle (Diabrotica balteata); assay: Diabrotica balteata spray test; conditions: 168 h, after 7 days, wheat seeds, read-out: efficacy (seedling growth); for pest or weed control at 32 µg/disc, 100 g/ha: 100 g/ha (=32 μg/well); for pest or weed control at 160 µg/disc, 500 g/ha: 500 g/ha (=160 μg/well)
In short: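 Efficacy is seedling survival after 7 days, where 0% means no seedlings grew and 100% means growth equal to untreated, uninfested controls. Wheat seedlings, germinated on agar for 1 day, were sprayed with the aqueous emulsifier dilution (acetone/DMF solvent) and then exposed to 10–20 banded cucumber beetle larvae.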

[6] = test system: green peach aphid (Myzus persicae); assay: Myzus persicae spray test; conditions: foliar, 120 h, after 5 days, Chinese cabbage leaf disks
In short: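 Chinese cabbage leaf disks infested with all aphid instars were sprayed with compound in acetone/DMF, diluted in water with 1000 ppm alkylarylpolyglycol ether emulsifier. Mortality (%) scored after 5 days, 100% meaning all aphids killed.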

[7] = test system: adult cat fleas (Ctenocephalides felis); assay: Ctenocephalides felis in-vitro contact test, adult cat flea; conditions: 5 μg/cm^2 (=500 g/ha), after 48 hours, read-out: efficacy (fleas dead or moribund)
Experimental: Ctenocephalides felis—In-Vitro Contact Tests Adult Cat Flea
9 mg compound is solved in 1 mL acetone and diluted with acetone to the desired concentration. 250 μL of the test solution is filled in 25 mL glass test tubes and homogeneously distributed on the inner walls by rotation and tilting on a shaking device (2 h at 30 rpm). With a compound concentration of 900 ppm, an inner surface of 44.7 cm^2 and a homogeneous distribution, a dose of 5 μg/cm^2 is achieved.
After the solvent has evaporated, each test tube is filled with 5-10 adult cat fleas (Ctenocephalides felis), closed with a perforated lid and incubated in a lying position at room temperature and relative humidity. After 48 hours efficacy is determined. The fleas are patted on the ground of the tubes and are incubated on a heating plate at 45-50° C. for at most 5 minutes Immotile or uncoordinated moving fleas, which are not able to escape the heat by climbing upwards, are marked as dead or moribund.
An efficacy of 100% means all fleas are dead or moribund; 0% means no fleas are dead or moribund.

[8] = test system: adult engorged female ticks (Rhipicephalus microplus); assay: Rhipicephalus (Boophilus) microplus injection test; conditions: 168 h, egg deposition monitored after 7 days, read-out: efficacy (infertile eggs); for pest or weed control at 4 µg/tick: 4 μg/tick injected; for pest or weed control at 20 µg/tick: 20 μg/tick injected
In short: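 Five adult engorged female ticks each injected with 1 μL of DMSO compound solution into the abdomen, then kept in a climate chamber. Fertile egg deposition assessed after 7 days, with hatching followed to about 42 days; efficacy 100% means all eggs infertile, 0% all fertile.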

[9] = test system: adult unfed cat fleas (Ctenocephalides felis); assay: Ctenocephalides felis oral test; conditions: 48 h, 100 ppm in cattle blood, after 2 days
Experimental: Ctenocephalides felis—Oral Test
• Solvent: dimethyl sulfoxide
To produce a suitable preparation of active compound, 10 mg of active compound are dissolved in 0.5 mL solvent, and the concentrate is diluted with cattle blood to the desired concentration.
Approximately 20 adult unfed cat fleas (Ctenocephalides felts) are placed in flea chambers. The blood chamber, sealed with parafilm on the bottom, are filled with cattle blood supplied with compound solution and placed on the gauze covered top of the flea chamber, so that the fleas are able to suck the blood. The blood chamber is heated to 37° C. whereas the flea chamber is kept at room temperature.
After 2 days mortality in % is determined. 100% means all the fleas have been killed; 0% means none of the fleas have been killed.

[10] = test system: Rhipicephalus (Boophilus) microplus larvae (strain Parkhurst, resistant against synthetic pyrethroids); assay: Rhipicephalus (Boophilus) microplus in-vitro contact test, larval cattle tick; conditions: 5 μg/cm^2 (=500 g/ha), after 48 hours, read-out: efficacy (larvae dead or moribund)
In short: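 Acetone solutions coated onto glass tube walls, 900 ppm giving 5 μg/cm^2; 20–50 larvae per tube after solvent evaporation. Incubated 48 h at 27 °C, 85% relative humidity; efficacy from negative geotaxis, 100% meaning all larvae dead or moribund.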

[11] = test system: southern root-knot nematode (Meloidogyne incognita); assay: Meloidogyne incognita test; conditions: 20 ppm, after 14 days
Experimental: Meloidogyne incognita—Test
• Solvent: 125.0 parts by weight of acetone
To produce a suitable preparation of active compound, 1 part by weight of active compound is mixed with the stated amount of solvent, and the concentrate is diluted with water to the desired concentration. Vessels are filled with sand, a solution of the active ingredient, a suspension containing eggs and larvae of the southern root-knot nematode (Meloidogyne incognita) and salad seeds. The salad seeds germinate and the seedlings grow. Galls develop in the roots.
After 14 days the nematicidal activity is determined on the basis of the percentage of gall formation. 100% means no galls were found and 0% means the number of galls found on the roots of the treated plants was equal to that in untreated control plants.

Row | SMILES | mortality at 100 g/ha [2] [%] | mortality at 100 g/ha [3] [%] | mortality at 500 g/ha [3] [%] | mortality at 500 g/ha [4] [%] | pest or weed control at 32 µg/disc, 100 g/ha [5] [%] | pest or weed control at 4 µg/tick [8] [%] | pest or weed control at 20 µg/tick [8] [%] | pest or weed control at 5 µg/cm2, 5 µg/cm2 [10] [%] | nematicidal activity (gall formation) [11] [%] | also measured
1 | C[C@H](NC(=O)c1cc(Cl)cc(C(C)(C)C#N)c1)c1nc(C2CC2)nn1-c1ccc(C#N)cn1 [Example I-38] | 100 | 90 | 100 | 100 | 100 |  |  |  |  | mortality at 20 mg/m2 [1]: 80 to 100%
2 | C[C@H](NC(=O)c1cc(OC(F)(F)F)cc(C(C)(C)C#N)c1)c1ncnn1-c1cc(C#N)ncn1 [Example I-66] | 100 |  | 100 | 100 | 100 |  |  |  |  | mortality at 100 g/ha [6]: 100%
3 | Cc1cc(OC2COC2)cc(C(=O)N[C@@H](C)c2ncnn2-c2ccc(C#N)cn2)c1 [Example I-6, N-{(1S)-1-[1-(5-Cyanopyridin-2-yl)-1H-1,2,4-triazol-5-yl]ethyl}-3-methyl-5-(oxetan-3-yloxy)benzamide] |  | 100 |  |  |  | 100 | 100 | 90 |  | pest or weed control at 5 µg/cm2, 5 µg/cm2 [7]: 100%; mortality at 500 g/ha [2]: 100%; mortality at 100 ppm [9]: 100%; mortality at 100 g/ha [4]: 100%; pest or weed control at 160 µg/disc, 500 g/ha [5]: 100%
4 | C[C@H](NC(=O)c1cc(Br)cc(C(F)(F)c2ccc(F)cc2)c1)c1ncnn1-c1ccc(C#N)cn1 [Example I-25] | 100 |  |  |  |  | 100 |  | 100 | 90 | mortality at 100 ppm [9]: 90%
5 | Cc1nc([C@H](C)NC(=O)c2cc(OC(F)(F)F)cc(C(C)(C)C#N)c2)n(-c2ncc(C#N)s2)n1 [Example I-51] | 100 |  | 100 | 100 | 100 |  |  |  |  | 
6 | Cc1cc(OC2CCCC2)cc(C(=O)N[C@@H](C)c2ncnn2-c2ccc(C#N)cn2)c1 [Example I-4, N-{(1S)-1-[1-(5-Cyanopyridin-2-yl)-1H-1,2,4-triazol-5-yl]ethyl}-3-(cyclopentyloxy)-5-methylbenzamide] |  | 100 |  |  |  | 100 | 100 |  |  | mortality at 100 g/ha [4]: 100%; pest or weed control at 160 µg/disc, 500 g/ha [5]: 100%
7 | CCN(C)C(=O)c1ccc(-n2nc(C)nc2[C@H](C)NC(=O)c2cc(Cl)cc(C(C)(C)C#N)c2)nc1 [Example I-52, 6-[5-[(1S)-1-[[3-chloro-5-(1-cyano-1-methyl-ethyl)benzoyl]amino]ethyl]-3-methyl-1,2,4-triazol-1-yl]-N-ethyl-N-methyl-pyridine-3-carboxamide] | 100 |  | 100 |  |  |  |  | 90 | 100 | 
8 | C[C@H](NC(=O)c1cc(Cl)cc(Oc2ccc(F)cc2)c1)c1ncnn1-c1ccc(C#N)cn1 [Example I-9] |  |  |  |  |  | 100 | 100 | 90 | 90 | 
